Assay results from patent publication EP4497440A1, “USE OF 7-TRIFLUOROMETHYL-7ALPHA,25-DIHYDROXYCHOLESTEROL IN THE TREATMENT AND MODULATION OF AUTOIMMUNE AND INFLAMMATORY DISEASES OF THE NERVOUS SYSTEM AND NEURODEGENERATIVE DISEASES” (Gdanski Uniwersytet Medyczny, priority 2023, dated 2025).

System: mice in the cuprizone model
Assay: Cuprizone model: mass spectrometer imaging and lipid quantification in brain sections
Assay type: in vivo
Excerpt: Measurement of lipoprotein density in myelin sheaths, taken on sections of brains of the mice in the cuprizone model. The mice in the cuprizone model subject were divided into 6 groups: • #1. control group: regular cuprizone-free chow for 9 weeks. The mice were euthanised after 9 weeks and tissue samples were taken for analysis. In these mice no removal of myelin sheaths occurred. • #2. control group with cuprizone: chow containing cuprizone for 9 weeks. The mice were euthanised after 9 weeks and tissue samples were taken for analysis. In the mice fed with chow containing cuprizone myelin sheaths were removed. • #3. vehicle control group - the mice were fed with chow containing cuprizone for 9 weeks, and then with regular chow without cuprizone for 2 weeks. Over the 2 weeks on regular show the mice in the vehicle control group were first injected with vehicle #1: DMSO, intraperitoneally, 150 µl once a day, and then with vehicle #2: canola oil, subcutaneously, 150 µl once a day. • #4. barbadin control group - the mice were fed with chow containing cuprizone for 9 weeks and then with regular chow without cuprizone for 2 weeks. […]
Mouse brain sections were imaged using a mass spectrometer and then the lipid density was quantified (Fig 4). […]

For C[C@H](CCCC(C)(C)O)[C@H]1CC[C@H]2[C@H]3[C@H](CC[C@]12C)[C@@]1(C)CC[C@H](O)CC1=C[C@]3(O)C(F)(F)F [CF3-7α,25OHC, cholestene-7β-trifluoromethyl,3β,7α,25-triol], which “content of cholesterol in the corpus callosum” value (group E (CF3-7α,25OHC 20 mg/kg) compared to control group treated with vehicles) is on record?
The value was “higher”.

What about the “number of lipids with higher synthesis / concentration in the corpus callosum (brain)” value (group E compared to untreated group C) of the same molecule?
Its value is 15.
